# Data reported in ChEMBL document CHEMBL1201862, “PubChem BioAssay data set” (2004).
#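 Growth conditions: 96-well plates. Treatment: test compound, 48 hours, 5 concentrations. Analysis: linear interpolation between bracketing concentrations; unreached endpoints set to highest concentration. GI50 marks 50% less growth.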 Activity calls are given as the source filed them. Cut-off read from the data, not from the text of the source: active = GI50 up to about 1.1 µM and inactive = higher.
# Legend:
# Test in all cases: DTP human tumour cell line panel, 48 h
# [1] = tested on: A498
# [2] = tested on: CCRF-CEM
# [3] = tested on: HT-29
# [4] = tested on: KM12
# [5] = tested on: M14
# [6] = tested on: MDA-MB-435
# [7] = tested on: OVCAR-3
# [8] = tested on: OVCAR-4
# [9] = tested on: OVCAR-8
# [10] = tested on: PC-3
# [11] = tested on: RPMI-8226
# [12] = tested on: SF-268
# [13] = tested on: SF-539
# [14] = tested on: SK-MEL-5
# [15] = tested on: SK-OV-3
# [16] = tested on: SNB-19
# [17] = tested on: TK-10
# [18] = tested on: IGROV-1
# [19] = tested on: RXF 393
# [20] = tested on: SR
SMILES,GI50 [1],GI50 [2],GI50 [3],GI50 [4],GI50 [5],GI50 [6],GI50 [7],GI50 [8],GI50 [9],GI50 [10],GI50 [11],GI50 [12],GI50 [13],GI50 [14],GI50 [15],GI50 [16],GI50 [17],GI50 [18],GI50 [19],GI50 [20]
CC(C)(C)OC(=O)C(C#N)C(=O)c1ccc(C(=O)O)[nH]1 (stereo not given),20.5 µM (inactive),15 µM (inactive),39.2 µM (inactive),34.8 µM (inactive),44.2 µM (inactive),32.3 µM (inactive),29.3 µM (inactive),19.5 µM (inactive),30.1 µM (inactive),33.7 µM (inactive),22.8 µM (inactive),47.4 µM (inactive),51.6 µM (inactive),31 µM (inactive),42 µM (inactive),41.5 µM (inactive),29.7 µM (inactive),,,
COc1cc(/C=N/c2ccccn2)cc(OC)c1OC,> 100 µM (inactive),> 100 µM (inactive),> 100 µM (inactive),> 100 µM (inactive),> 100 µM (inactive),24.5 µM (inactive),> 100 µM (inactive),> 100 µM (inactive),> 100 µM (inactive),,65 µM (inactive),> 100 µM (inactive),> 100 µM (inactive),> 93.1 µM (inactive),> 63.8 µM (inactive),80.5 µM (inactive),,> 100 µM (inactive),58.7 µM (inactive),> 63.2 µM (inactive)
CC1CN=C(N(Cc2ccccc2)C(=O)Nc2ccc(Cl)c(Cl)c2)S1 (stereo not given),35.7 µM (inactive),> 10 µM (inactive),30.1 µM (inactive),40.7 µM (inactive),18.3 µM (inactive),,50.9 µM (inactive),61.8 µM (inactive),49.3 µM (inactive),31.4 µM (inactive),33.7 µM (inactive),62.7 µM (inactive),33.3 µM (inactive),23.3 µM (inactive),52.4 µM (inactive),62.4 µM (inactive),32.4 µM (inactive),32.5 µM (inactive),,29.1 µM (inactive)
N#CC(c1cc(Cl)ncn1)c1nc2ccccc2s1 (stereo not given),21.8 µM (inactive),,10.3 µM (inactive),3.87 µM (inactive),17.1 µM (inactive),18.1 µM (inactive),7.01 µM (inactive),6.46 µM (inactive),3.85 µM (inactive),,2.49 µM (inactive),5.25 µM (inactive),5.42 µM (inactive),16.4 µM (inactive),14.8 µM (inactive),5.93 µM (inactive),4.81 µM (inactive),6.92 µM (inactive),16.1 µM (inactive),
CC(=O)OC[C@@H]1[C@H]2CC(=O)O[C@H]2C[C@H]1OC(C)=O,> 100 µM (inactive),> 100 µM (inactive),> 100 µM (inactive),> 100 µM (inactive),> 100 µM (inactive),,> 100 µM (inactive),> 100 µM (inactive),> 100 µM (inactive),,> 100 µM (inactive),> 100 µM (inactive),> 100 µM (inactive),> 100 µM (inactive),> 100 µM (inactive),> 100 µM (inactive),> 100 µM (inactive),> 100 µM (inactive),> 100 µM (inactive),> 100 µM (inactive)
C=CCC1(CN(C)C)CC/C(=C\c2ccc(Cl)cc2)C1=O (stereo not given),37.2 µM (inactive),15.9 µM (inactive),24.1 µM (inactive),29.5 µM (inactive),23.7 µM (inactive),,36.1 µM (inactive),31 µM (inactive),42.3 µM (inactive),,17 µM (inactive),37.8 µM (inactive),> 54.1 µM (inactive),28.8 µM (inactive),> 100 µM (inactive),77.3 µM (inactive),> 100 µM (inactive),29.2 µM (inactive),31 µM (inactive),0.0973 µM (active)
COc1cc2c(cc1OC)C(C)N(C)c1c-2c(OC(C)=O)cc2cc(OC)c(OC)cc12 (stereo not given),10.7 µM (inactive),31.6 µM (inactive),8.04 µM (inactive),14.2 µM (inactive),11.7 µM (inactive),15.8 µM (inactive),4.29 µM (inactive),5.61 µM (inactive),9.4 µM (inactive),14.7 µM (inactive),8.69 µM (inactive),26.9 µM (inactive),16 µM (inactive),4.67 µM (inactive),27.7 µM (inactive),27.5 µM (inactive),23.2 µM (inactive),,6.12 µM (inactive),
CN(C)CCNC(=O)c1cccc2cc3ccc4ccccc4c3nc12,< 0.01 µM (active),0.0406 µM (active),0.0516 µM (active),0.148 µM (active),0.2 µM (active),,0.215 µM (active),0.115 µM (active),0.0594 µM (active),,0.145 µM (active),0.0953 µM (active),0.0811 µM (active),0.137 µM (active),0.121 µM (active),0.0942 µM (active),0.207 µM (active),0.105 µM (active),0.111 µM (active),0.0246 µM (active)
CCOC(=O)C(=[N+]=[N-])C(=O)CN1C(=O)c2ccccc2C1=O,> 100 µM (inactive),,> 100 µM (inactive),,> 100 µM (inactive),> 100 µM (inactive),> 100 µM (inactive),> 100 µM (inactive),> 100 µM (inactive),> 100 µM (inactive),,> 100 µM (inactive),> 100 µM (inactive),> 100 µM (inactive),> 100 µM (inactive),> 100 µM (inactive),> 100 µM (inactive),> 100 µM (inactive),> 100 µM (inactive),
COc1ccc(-c2csc(-n3c(-c4ccccc4)nc4c(Br)cc(Br)cc4c3=O)n2)cc1,15.5 µM (inactive),13.1 µM (inactive),26.7 µM (inactive),33.6 µM (inactive),29.4 µM (inactive),38.3 µM (inactive),25.2 µM (inactive),63.2 µM (inactive),26.7 µM (inactive),25.8 µM (inactive),7.74 µM (inactive),15.6 µM (inactive),,18.2 µM (inactive),28.1 µM (inactive),34 µM (inactive),51.5 µM (inactive),2.92 µM (inactive),26.3 µM (inactive),
O=C1c2ccccc2-c2c1c(-c1ccc(F)cc1)nc1ccc3ccccc3c21,> 100 µM (inactive),> 100 µM (inactive),> 100 µM (inactive),> 100 µM (inactive),> 100 µM (inactive),> 100 µM (inactive),> 100 µM (inactive),> 100 µM (inactive),> 100 µM (inactive),> 100 µM (inactive),> 100 µM (inactive),> 100 µM (inactive),> 100 µM (inactive),,> 100 µM (inactive),> 100 µM (inactive),,,> 100 µM (inactive),
O=C(/C=C1\N=C(c2ccccc2)N(c2nc3ccc(Sc4ccccc4)cc3[nH]2)C1=O)/C=C/c1ccccc1,27.9 µM (inactive),31.6 µM (inactive),30.3 µM (inactive),26.7 µM (inactive),33.3 µM (inactive),15.7 µM (inactive),29.6 µM (inactive),39.8 µM (inactive),24.5 µM (inactive),30.5 µM (inactive),22.6 µM (inactive),31.4 µM (inactive),,21.5 µM (inactive),40.9 µM (inactive),49 µM (inactive),29.2 µM (inactive),45.4 µM (inactive),22.8 µM (inactive),
CCOC(=O)C(C(=O)OCC)C(=O)c1ccccc1C(=O)c1ccccc1,> 100 µM (inactive),96.2 µM (inactive),28.4 µM (inactive),> 100 µM (inactive),> 100 µM (inactive),> 100 µM (inactive),74 µM (inactive),> 100 µM (inactive),,,,> 100 µM (inactive),> 100 µM (inactive),97.1 µM (inactive),> 100 µM (inactive),> 100 µM (inactive),> 100 µM (inactive),> 100 µM (inactive),> 100 µM (inactive),18.1 µM (inactive)
NC(=O)c1ccc(/N=N/O)nc1,> 100 µM (inactive),> 100 µM (inactive),> 100 µM (inactive),> 100 µM (inactive),> 100 µM (inactive),,> 100 µM (inactive),> 100 µM (inactive),> 100 µM (inactive),> 100 µM (inactive),,> 100 µM (inactive),> 100 µM (inactive),> 100 µM (inactive),> 100 µM (inactive),> 100 µM (inactive),> 100 µM (inactive),> 100 µM (inactive),,> 100 µM (inactive)
CC1(C)C(O)C[C@@H](O)[C@@]2(C)C1CC[C@]1(C)C2C[C@@H](O)[C@@H]2C([C@@]3(C)CC[C@@H](C(C)(C)O)O3)CCC21C (stereo not given in full),17.3 µM (inactive),17.8 µM (inactive),17.6 µM (inactive),15.9 µM (inactive),13.8 µM (inactive),,15.7 µM (inactive),22.4 µM (inactive),18.7 µM (inactive),,16.7 µM (inactive),17.2 µM (inactive),14.2 µM (inactive),10.4 µM (inactive),15.9 µM (inactive),14.2 µM (inactive),27.2 µM (inactive),14.5 µM (inactive),13.4 µM (inactive),8.83 µM (inactive)
COc1c(OC)c(OC)c(-c2cc(=O)c3c(OC)c(OC)c(OC)c(OC)c3o2)c(OC)c1OC,31.3 µM (inactive),34 µM (inactive),28.8 µM (inactive),,44 µM (inactive),34.5 µM (inactive),16.3 µM (inactive),18.1 µM (inactive),31.1 µM (inactive),,60.8 µM (inactive),69.5 µM (inactive),48.9 µM (inactive),24.2 µM (inactive),71.1 µM (inactive),51.9 µM (inactive),29.3 µM (inactive),25.5 µM (inactive),27.3 µM (inactive),> 100 µM (inactive)
